Measured values from PubChem BioAssay AID1918932 (Molecular Pharmacology Branch, DTP, NCI, 2023).

Test system: 171881-019-R-J1-PDC complex spheroid viability
Assay: Anticancer human tumor 171881-019-R-J1-PDC patient-derived invasive breast carcinoma cell line growth inhibition
Conditions: for IC50: curve of first compound; for viability, T/C: stronger effect = lower value
How it was run: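 Multicellular complex spheroids of tumor cells with human endothelial cells (HUVEC) and mesenchymal stem cells; the LSD1 inhibitor iadademstat was combined with standard-of-care or investigational agents. Top concentration at or near clinical Cmax, half-log dilutions; final DMSO ≤0.25%.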

[1] = second compound 0.1 µM, first compound 0.0316 µM
[2] = second compound 0.1 µM, first compound 0.1 µM
[3] = second compound 0.316 µM, first compound 0.0316 µM
[4] = second compound 0.316 µM, first compound 0.1 µM
[5] = second compound 1 µM, first compound 0.0316 µM
[6] = second compound 1 µM, first compound 0.1 µM
[7] = second compound 3.16 µM, first compound 0.0316 µM
[8] = second compound 3.16 µM, first compound 0.1 µM
[9] = second compound 10 µM, first compound 0.0316 µM
[10] = second compound 10 µM, first compound 0.1 µM
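Further: spheroids exposed to agents for 7 days after 3 days growth.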

With Cn1ncnc1C1c2n[nH]c(=O)c3cc(F)cc(c23)NC1c1ccc(F)cc1 (stereo not given) + NC1CC1c1ccc(-c2cccc(O)c2)cc1 the IC50 (second compound 0.1 µM) was > 0.1 µM, the IC50 (second compound 0.316 µM) was > 0.1 µM and the IC50 (second compound 1 µM) was > 0.1 µM. The IC50 (second compound 3.16 µM) was > 0.1 µM, the IC50 (second compound 10 µM) was > 0.1 µM and the viability, T/C (second compound 0.1 µM, first compound 0.000316 µM) was 105%. The viability, T/C (second compound 0.1 µM, first compound 0.001 µM) was 106%, the viability, T/C (second compound 0.1 µM, first compound 0.00316 µM) was 107% and the viability, T/C (second compound 0.1 µM, first compound 0.01 µM) was 104%. It also gave a viability, T/C [1] of 105%, a viability, T/C [2] of 102% and a viability, T/C (second compound 0.316 µM, first compound 0.000316 µM) of 106%. For the same compound, the viability, T/C (second compound 0.316 µM, first compound 0.001 µM) was 111%, the viability, T/C (second compound 0.316 µM, first compound 0.00316 µM) was 109% and the viability, T/C (second compound 0.316 µM, first compound 0.01 µM) was 108%. It also gave a viability, T/C [3] of 108%, a viability, T/C [4] of 102% and a viability, T/C (second compound 1 µM, first compound 0.000316 µM) of 105%. It also gave a viability, T/C (second compound 1 µM, first compound 0.001 µM) of 106%, a viability, T/C (second compound 1 µM, first compound 0.00316 µM) of 111% and a viability, T/C (second compound 1 µM, first compound 0.01 µM) of 108%. The viability, T/C [5] was 103%, the viability, T/C [6] was 103% and the viability, T/C (second compound 3.16 µM, first compound 0.000316 µM) was 97.2%. The viability, T/C (second compound 3.16 µM, first compound 0.001 µM) was 104%, the viability, T/C (second compound 3.16 µM, first compound 0.00316 µM) was 101% and the viability, T/C (second compound 3.16 µM, first compound 0.01 µM) was 102%. For the same compound, the viability, T/C [7] was 98.6%, the viability, T/C [8] was 96.8% and the viability, T/C (second compound 10 µM, first compound 0.000316 µM) was 85.3%. The viability, T/C (second compound 10 µM, first compound 0.001 µM) was 91.2%, the viability, T/C (second compound 10 µM, first compound 0.00316 µM) was 90.8% and the viability, T/C (second compound 10 µM, first compound 0.01 µM) was 83%. For the same compound, the viability, T/C [9] was 83.3% and the viability, T/C [10] was 81.3%.

O=C(c1cc(Cc2n[nH]c(=O)c3ccccc23)ccc1F)N1CCN(C(=O)C2CC2)CC1 + NC1CC1c1ccc(-c2cccc(O)c2)cc1 showed an IC50 (second compound 0.1 µM) of 3.7 µM, an IC50 (second compound 0.316 µM) of 4.09 µM and an IC50 (second compound 1 µM) of 4.23 µM. The IC50 (second compound 3.16 µM) was 4.4 µM, the IC50 (second compound 10 µM) was 3.09 µM and the viability, T/C [1] was 90.8%. For the same compound, the viability, T/C [2] was 106%, the viability, T/C (second compound 0.1 µM, first compound 0.316 µM) was 98.7% and the viability, T/C (second compound 0.1 µM, first compound 1 µM) was 88.5%. For the same compound, the viability, T/C (second compound 0.1 µM, first compound 3.16 µM) was 54.5%, the viability, T/C (second compound 0.1 µM, first compound 10 µM) was 22.7% and the viability, T/C [3] was 101%. The viability, T/C [4] was 104%, the viability, T/C (second compound 0.316 µM, first compound 0.316 µM) was 101% and the viability, T/C (second compound 0.316 µM, first compound 1 µM) was 88%. It also gave a viability, T/C (second compound 0.316 µM, first compound 3.16 µM) of 57.8%, a viability, T/C (second compound 0.316 µM, first compound 10 µM) of 23.7% and a viability, T/C [5] of 106%. It also gave a viability, T/C [6] of 105%, a viability, T/C (second compound 1 µM, first compound 0.316 µM) of 102% and a viability, T/C (second compound 1 µM, first compound 1 µM) of 89.5%. The viability, T/C (second compound 1 µM, first compound 3.16 µM) was 58.9%, the viability, T/C (second compound 1 µM, first compound 10 µM) was 24% and the viability, T/C [7] was 102%. It also gave a viability, T/C [8] of 105%, a viability, T/C (second compound 3.16 µM, first compound 0.316 µM) of 101% and a viability, T/C (second compound 3.16 µM, first compound 1 µM) of 87%. For the same compound, the viability, T/C (second compound 3.16 µM, first compound 3.16 µM) was 61%, the viability, T/C (second compound 3.16 µM, first compound 10 µM) was 23.7% and the viability, T/C [9] was 85.7%. It also gave a viability, T/C [10] of 84.2%, a viability, T/C (second compound 10 µM, first compound 0.316 µM) of 83.4% and a viability, T/C (second compound 10 µM, first compound 1 µM) of 74%. It also gave a viability, T/C (second compound 10 µM, first compound 3.16 µM) of 49.6% and a viability, T/C (second compound 10 µM, first compound 10 µM) of 18.9%.
